Paper PMC8112869, “Therapeutic inhibition of keratinocyte TRPV3 sensory channel by local anesthetic dyclonine” (eLife, 2021)

Key:
mouse TRPV3 = target: T1, mouse TRPV3 (Mus musculus, UniProt Q8K424); assay: Voltage-step whole-cell recording of TRPV3 currents (40 μM 2-APB) in HEK 293T cells; format: cell-based; parameters: expressed in transfected cells; host or cells: HEK 293T; conditions: steps –160 to +180 mV, dyclonine 10, 30 μM, RR 10 μM
T1 sequence (Q8K424 1-791): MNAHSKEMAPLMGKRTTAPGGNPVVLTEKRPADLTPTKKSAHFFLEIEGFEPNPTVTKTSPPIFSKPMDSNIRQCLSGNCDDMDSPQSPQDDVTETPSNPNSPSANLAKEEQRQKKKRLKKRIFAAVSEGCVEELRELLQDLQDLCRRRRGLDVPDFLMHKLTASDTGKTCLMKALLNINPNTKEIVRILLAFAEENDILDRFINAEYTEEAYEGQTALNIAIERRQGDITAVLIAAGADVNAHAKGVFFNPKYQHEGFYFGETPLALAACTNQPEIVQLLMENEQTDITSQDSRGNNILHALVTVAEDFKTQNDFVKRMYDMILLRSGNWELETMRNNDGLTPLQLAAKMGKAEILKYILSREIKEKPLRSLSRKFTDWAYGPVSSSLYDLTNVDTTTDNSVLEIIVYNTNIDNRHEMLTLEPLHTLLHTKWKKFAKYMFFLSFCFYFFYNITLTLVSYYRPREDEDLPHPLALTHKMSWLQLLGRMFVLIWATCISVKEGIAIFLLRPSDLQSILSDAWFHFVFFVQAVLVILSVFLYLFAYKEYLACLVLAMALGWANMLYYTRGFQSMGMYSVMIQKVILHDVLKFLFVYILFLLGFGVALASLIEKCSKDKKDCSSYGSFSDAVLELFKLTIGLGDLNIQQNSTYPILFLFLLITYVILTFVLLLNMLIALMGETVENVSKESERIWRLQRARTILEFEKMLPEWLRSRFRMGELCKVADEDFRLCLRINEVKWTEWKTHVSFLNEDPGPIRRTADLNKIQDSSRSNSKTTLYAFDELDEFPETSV
Description: Conventional whole-cell and excised patch-clamp recording methods were used. For the recombinant expressing system, green fluorescent EGFP was used as a surface marker for gene expression. Recording pipettes were pulled from borosilicate glass capillaries (World Precision Instruments) and fire-polished to a resistance between 2 and 4 MΩ when filled with internal solution containing (in mM) 140 CsCl, 2.0 MgCl2, 5 EGTA, and 10 HEPES, pH 7.4 (adjusted with CsOH). Bath solution contained (in mM): 140 NaCl, 5 KCl, 3 EGTA, and 10 HEPES, pH 7.4 adjusted with NaOH. For recordings in keratinocytes, the bath saline consisted of (in mM) 140 NaCl, 5 KCl, 2 MgCl2, 2 CaCl2, 10 glucoses, and 10 HEPES, pH 7.4 adjusted with NaOH, and the pipette solution contained (in mM) 140 CsCl, 5 EGTA, and 10 HEPES, pH 7.3 adjusted with CsOH. […] For a subset of recordings, currents were amplified using an Axopatch 200B amplifier (Molecular Devices, Sunnyvale, CA) and recorded through a BNC-2090/MIO acquisition system (National Instruments, Austin, TX) using QStudio developed by Dr. Feng Qin at State University of New York at Buffalo. […] As determined by the conductance tests, the solution around a patch under study was fully controlled by the application of a flow rate of 100 μl/min or greater. […]

C57B/6 mice = assay: Carvacrol-induced itch-scratching behavior in mice; format: in vivo, mouse
Experimental: To assess itch-scratching behaviors, the hair of the rostral part of the mouse’s right neck was shaved using an electric hair clipper 24 hr before the start of experiments. Trpv3^-/- mice have been described previously ([Wang et al., 2021]). Scratching behaviors were recorded on video. The number of itch-scratching bouts was counted through video playback analysis. One scratching bout was defined as an episode in which a mouse lifted its right hind limb to the injection site and scratched continuously for any time length until this limb was returned to the floor or mouth ([Wilson et al., 2013]). All behavioral experiments were conducted in a double-blind manner. […] [Sun and Dong, 2016]).

Structure (SMILES)	effect on TRPV3-mediated inward and outward currents (voltage dependence) (mouse TRPV3)	change in the number of scratching bouts (C57B/6 mice; TRPV3-/- mice, intradermal carvacrol 0.1%, 50 μl)	accumulated scratching bouts over 30 min (C57B/6 mice; WT TRPV3 mice, intradermal carvacrol 0.1%, 50 μl)	scratching bouts over 30 min (C57B/6 mice; carvacrol (0.1%, 50 μl) with pretreatment of normal saline)
N.N.N.N.N.N.N.N.N.N.N.N.N.N.[Cl-].[Cl-].[Cl-].[Cl-].[Cl-].[Cl-].[O-2].[O-2].[Ru+3].[Ru+3].[Ru+4] [RR, ruthenium red]	only inhibited TRPV3-mediated inward currents but enhanced outward currents	–	–	–
Cc1ccc(C(C)C)cc1O [carvacrol]	–	did not elicit a remarkable change	137.2 ± 33.9	137.8 ± 18.3
